Source: patent publication US20240059675A1, “PIPERIDINYLPYRIDINYLCARBONITRILE DERIVATIVES AS INHIBITORS OF GLUTAMINYL-PEPTIDE CYCLOTRANSFERASE AND GLUTAMINYL-PEPTIDE CYCLOTRANSFERASE LIKE PROTEIN” (Boehringer Ingelheim International GmbH, priority 2022, published 2024)

Legend:
[1] = Assay C: permeability in CACO-2 cells; type: in vitro ADME; details: human, pH 7.2; for Papp A→B: Caco-2, apical to basolateral; for efflux ratio: Caco-2, permeability B-A / permeability A-B
[2] = tested on: SIRPα signalling induced by Raji cells; assay: Assay B: SIRPα signalling assay using Raji cells; type: cell-based; details: Homo sapiens, 48 h compound incubation, Jurkat PathHunter SIRPαV1 reporter cells, read-out: Inhibition of SIRPα signalling induced by Raji cells: IC50
Method: (§1) Two cell types are independently used: the Raji cell line (lymphoblast-like human cell line derived from B lymphocytes from a Burkitt's lymphoma patient in 1963) and A549 cells (adenocarcinomic human alveolar basal epithelial cells).
(§2) Test compounds were dissolved in 100% DMSO and serially diluted into a white 384-well microtiter cell culture plate (PerkinElmer #60076780 in case of Raji assay; PDL-coated plates Greiner #781945 in case of A549 assay). 5000 Raji cells (ATCC #CC86) or 5000 A549 cells (ATCC #CCL-185) in Assay Complete Cell Plating reagent 30 (DiscoverX 93-0563R30B) were added per well. The assay plate was incubated for 48 h at 37° C., 95% humidity and 5% CO2. 15000 reporter cells (Jurkat PathHunter SIRPαV1, DiscoverX #93-1135C19) were added to each well, and the plate was incubated for 5 h at 37° C., 95% humidity and 5% CO2. Bioassay reagent 1 of the PathHunter Bioassay detection kit (DiscoverX 93-0001) was added to each well of the plate using a multichannel pipette followed by a 15 min incubation at room temperature. Afterwards bioassay reagent 2 was added followed by 60 min incubation at room temperature (incubation in the dark).
(§3) The analysis of the data was performed using the luminescence signal generated by beta-galactosidase in the PathHunter reporter cell line. The luminescence measurement was done using a Pherastar Multi-Mode Reader. Dose-response curves & IC50 data were calculated with 4-parameter sigmoidal dose response formula.

[3] = tested on: SIRPα signalling induced by A549 cells; assay: Assay B: SIRPα signalling assay using A549 cells; type: cell-based; details: Homo sapiens, 48 h compound incubation, Jurkat PathHunter SIRPαV1 reporter cells, read-out: Inhibition of SIRPα signalling induced by A549 cells: IC50
Method: as §1, §2, §3

QPCT = QPCT (Homo sapiens (Human), UniProt Q16769); assay: Assay A: biochemical QPCT activity assay (MALDI-TOF MS, CD47 peptide substrate); details: 0.5 nM enzyme, 20 μM CD47 peptide substrate; read-out: Inhibition of QPCT: IC50
QPCTL = QPCTL (Homo sapiens (Human), UniProt Q9NXS2); assay: Assay A: biochemical QPCTL activity assay (MALDI-TOF MS, CD47 peptide substrate); details: 0.5 nM enzyme, 10 μM CD47 peptide substrate; read-out: Inhibition of QPCTL: IC50
Chain of QPCTL (Q9NXS2 whole entry): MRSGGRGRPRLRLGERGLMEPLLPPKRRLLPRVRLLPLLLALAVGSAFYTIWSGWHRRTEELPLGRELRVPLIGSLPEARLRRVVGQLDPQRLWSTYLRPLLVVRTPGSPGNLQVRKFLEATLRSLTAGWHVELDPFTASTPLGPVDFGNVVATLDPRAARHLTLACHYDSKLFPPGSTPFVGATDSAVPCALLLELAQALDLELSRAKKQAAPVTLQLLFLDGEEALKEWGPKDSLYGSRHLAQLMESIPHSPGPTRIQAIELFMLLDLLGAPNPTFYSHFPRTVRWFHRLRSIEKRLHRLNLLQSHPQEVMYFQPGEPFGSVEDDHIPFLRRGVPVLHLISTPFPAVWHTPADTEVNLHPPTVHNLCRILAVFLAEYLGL

Chain of QPCT (Q16769 29-361): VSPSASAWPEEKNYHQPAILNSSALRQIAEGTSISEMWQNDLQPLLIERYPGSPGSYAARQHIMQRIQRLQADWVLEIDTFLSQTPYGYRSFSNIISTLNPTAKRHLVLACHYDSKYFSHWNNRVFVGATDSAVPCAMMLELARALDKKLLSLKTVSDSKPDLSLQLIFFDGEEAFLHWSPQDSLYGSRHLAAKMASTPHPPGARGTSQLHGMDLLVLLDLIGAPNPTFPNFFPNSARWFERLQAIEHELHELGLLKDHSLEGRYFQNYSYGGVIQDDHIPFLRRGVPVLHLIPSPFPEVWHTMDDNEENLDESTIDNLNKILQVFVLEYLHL

Compound | Papp A→B [1] [×10⁻⁶ cm/s] | IC50 [2] [nM] | IC50 [3] [nM] | efflux ratio [1] | IC50 (QPCT) [nM] | IC50 (QPCTL) [nM]
Cn1cnnc1C1(F)CCN(c2c(C#N)ccnc2-c2ccc(F)nc2)CC1 [Example 1] | 28 | 168 | 51 | – | – | –
Cn1cnnc1C1CCN(c2c(C#N)ccnc2-c2ccc(F)nc2)CC1 [Example 2] | 4.8 | 245 | 60 | 3.5 | 17 | 2
CC(C)Oc1cc(-c2nccc(C#N)c2N2CCC(c3nncn3C)CC2)cnc1F [Example 4] | 8.5 | 182 | 38 | 5.9 | 12 | 1
COc1cc(-c2nccc(C#N)c2N2CCC(c3nncn3C)CC2)cnc1F [Example 5] | 2 | 350 | 44 | 14 | 13 | 2
Cn1cnnc1C1(F)CCN(c2c(C#N)ccnc2-c2cnc3nn(C(C)(C)C)cc3c2)CC1 [Example 8] | 1.3 | 25 | 22 | – | – | –
Cn1cnnc1C1(F)CCN(c2c(C#N)ccnc2-c2cnc3nnc(C(C)(C)C)n3c2)CC1 [Example 12] | 2.5 | 53 | 31 | 11.2 | 2 | 2
Cn1cnnc1C1(F)CCN(c2c(C#N)ccnc2-c2cnc3nc(C(C)(C)C)cn3c2)CC1 [Example 13] | 1 | 65 | 22 | 35 | 1 | 1
Cn1cnnc1C1(F)CCN(c2c(C#N)ccnc2-c2cnn3ncccc23)CC1 [Example 14] | 41 | 436 | 116 | 0.6 | 10 | 11
Cn1cnnc1C1(F)CCN(c2c(C#N)ccnc2-c2cnc3nc(C(F)(F)F)cn3c2)CC1 [Example 15] | 0.9 | 59 | 33 | 14.1 | 1 | 1
Cn1cnnc1C1(F)CCN(c2c(C#N)ccnc2-c2cncc(-n3cccn3)c2)CC1 [Example 19] | 4.9 | 509 | 18 | 6.5 | 10 | 2
Cn1cnnc1C1(F)CCN(c2c(C#N)ccnc2-c2cncc(C3CC3)c2)CC1 [Example 20] | – | 1950 | 342 | – | 29 | 21
Cn1cc2cc(-c3nccc(C#N)c3N3CCC(F)(c4nncn4C)CC3)cnc2n1 [Example 21] | – | 322 | 22 | – | 3 | 1
Cn1cnnc1C1(F)CCN(c2c(C#N)ccnc2-c2cnc(F)c(OCC3CC3)c2)CC1 [Example 26] | 45 | 103 | 7 | 1.7 | – | –
Cn1cnnc1C1(F)CCN(c2c(C#N)ccnc2-c2cnc3nn(C(C)(C)C(F)(F)F)cc3c2)CC1 [Example 29] | 2.5 | 81 | 13 | 15.2 | – | –
Cn1cnnc1C1(F)CCN(c2c(C#N)ccnc2-c2cnc3nn(C4(C(F)(F)F)CC4)cc3c2)CC1 [Example 30] | 0.5 | 87 | 47 | 54.9 | 2 | 2
Cn1cnnc1C1(F)CCN(c2c(C#N)ccnc2-c2cnc3nn(C4(C)CC(F)(F)C4)cc3c2)CC1 [Example 31] | 1.7 | 179 | 21 | 27.6 | 3 | 2
Cn1cnnc1C1(F)CCN(c2c(C#N)ccnc2-c2cnc3nn(C(C)(C)c4ccc(F)cc4)cc3c2)CC1 [Example 32] | 3.5 | 6 | 3 | 12.6 | 1 | 1
Nc1ncc(C2CCN(c3ncccc3-c3ccc(F)nc3)CC2)s1 [Example 1094, reference compound] | – | 3240 | – | – | – | –
Nc1nnc(C2CCN(c3ncccc3-c3ccc(F)nc3)CC2)s1 [Example 1095, reference compound] | – | 2200 | 161 | – | – | –
Cn1cnnc1C1CCN(c2ncccc2-c2ccc(F)nc2)CC1 [SEN177, reference compound] | – | 1360 | 214 | – | – | –
Cn1cnnc1C1CCN(c2ncccc2-c2cccnc2)CC1 [SEN180, reference compound] | – | 2970 | 868 | – | – | –

Second part, the compound after the results:

Papp A→B [1] [×10⁻⁶ cm/s] | IC50 [2] [nM] | IC50 [3] [nM] | efflux ratio [1] | IC50 (QPCT) [nM] | IC50 (QPCTL) [nM] | Compound
4.9 | 467 | 29 | 8.4 | 2 | 2 | Cn1cnnc1C1(C)CCN(c2c(C#N)ccnc2-c2ccc(F)nc2)CC1 [Example 3]
34 | 190 | 34 | 2.3 | 8 | 2 | Cc1cc(-c2nccc(C#N)c2N2CCC(F)(c3nncn3C)CC2)cnc1F [Example 6]
18 | 214 | 27 | 3.3 | 12 | 2 | COc1cc(-c2nccc(C#N)c2N2CCC(F)(c3nncn3C)CC2)cnc1F [Example 7]
1.8 | 1090 | – | 7.8 | 26 | 4 | Cn1cnnc1C1CCN(c2c(-c3ccc(F)nc3)ccnc2C#N)CC1 [Example 9]
11 | 352 | – | 5.6 | 8 | 4 | Cn1cnnc1C1(F)CCN(c2c(-c3ccc(F)nc3)ccnc2C#N)CC1 [Example 10]
3.1 | 1820 | 237 | 11.6 | 11 | 14 | Cn1cnnc1C1(C)CCN(c2c(-c3ccc(F)nc3)ccnc2C#N)CC1 [Example 11]
40 | 86 | 8 | 1.7 | 4 | 1 | Cc1cc(C#N)c(N2CCC(F)(c3nncn3C)CC2)c(-c2ccc(F)nc2)n1 [Example 16]
38 | 92 | 49 | 1.3 | 8 | 4 | Cn1cnnc1C1(F)CCN(c2c(C#N)cc(C(F)(F)F)nc2-c2ccc(F)nc2)CC1 [Example 17]
41 | 482 | 112 | 1.4 | 23 | 8 | Cn1cnnc1C1(F)CCN(c2c(C#N)ccnc2-c2cnc(F)c(Cl)c2)CC1 [Example 18]
0.2 | 653 | 103 | 10 | 12 | 3 | Cn1cnnc1C1(F)CCN(c2c(C#N)ccnc2-c2ccnnc2)CC1 [Example 22]
– | 1660 | 114 | – | 32 | 6 | Cn1cnnc1C1(F)CCN(c2c(C#N)ccnc2-c2cnc(F)c(F)c2)CC1 [Example 23]
– | 1770 | 693 | – | 31 | 18 | Cn1cnnc1C1(F)CCN(c2c(C#N)ccnc2-c2cn[nH]c2)CC1 [Example 24]
– | 1610 | 44 | – | 30 | 10 | Cn1cnnc1C1(F)CCN(c2c(C#N)ccnc2-c2cnsc2)CC1 [Example 25]
36 | 176 | 39 | 2 | 5 | 3 | Cn1cnnc1C1(F)CCN(c2c(C#N)ccnc2-c2cnc(F)c(OC3CC3)c2)CC1 [Example 27]
– | 180 | 33 | – | 3 | 2 | C=CCOc1cc(-c2nccc(C#N)c2N2CCC(F)(c3nncn3C)CC2)cnc1F [Example 28]
